# According to PubChem BioAssay (NCI):
# Values joined by “and” are separate entries in the source; they are usually repeats but may differ in a detail not shown here. Equal values may be shown once.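 The compound was tested at five concentrations on cells cultured in 96-well plates, with a 48-hour exposure period. Here, GI50 denotes the concentration required for 50% inhibition of growth. TGI is the concentration that stops growth completely.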
# Columns and labels:
# Assay in all cases: NCI anticancer screen, dose series, 48 h
# 786-0 renal = tested on: 786-0 renal
# COLO 205 colon = tested on: COLO 205 colon
# DU-145 prostate = tested on: DU-145 prostate
# K-562 leukemia = tested on: K-562 leukemia
# NCI-H522 lung = tested on: NCI-H522 lung
# OVCAR-3 ovarian = tested on: OVCAR-3 ovarian
# PC-3 prostate = tested on: PC-3 prostate
# SK-MEL-2 melanoma = tested on: SK-MEL-2 melanoma
# SN12C renal = tested on: SN12C renal
# SNB-75 CNS = tested on: SNB-75 CNS
SMILES,TGI (786-0 renal),TGI (COLO 205 colon),TGI (DU-145 prostate),TGI (K-562 leukemia),TGI (NCI-H522 lung),TGI (OVCAR-3 ovarian),TGI (PC-3 prostate),TGI (SK-MEL-2 melanoma),TGI (SN12C renal),TGI (SNB-75 CNS),GI50 (COLO 205 colon),GI50 (DU-145 prostate),GI50 (K-562 leukemia),GI50 (NCI-H522 lung),GI50 (OVCAR-3 ovarian),GI50 (PC-3 prostate),GI50 (SK-MEL-2 melanoma),GI50 (SN12C renal),GI50 (SNB-75 CNS)
O=c1oc2ccccc2cc1-c1nc2ccc([N+](=O)[O-])cc2o1,> 100 µM,> 100 µM,> 100 µM,> 100 µM,> 100 µM,> 100 µM,> 100 µM,> 100 µM,> 100 µM,> 100 µM,,,,,,,,,
Oc1c2cccc1Cc1cccc3c1OCCOCCOCCOCCOc1c(cccc1Cc1cccc(c1O)C3)C2,> 100 µM,> 100 µM,> 100 µM,> 100 µM,> 100 µM,> 100 µM,> 100 µM,> 100 µM,> 100 µM,87.3 µM,,,,,,,,,
O=C1/C(=C/c2cccc(Oc3ccccc3)c2)N=C(c2ccccc2)N1c1nc2ccc(Sc3ccccc3)cc2[nH]1,> 100 µM,31.5 µM,> 100 µM,> 100 µM,65.8 µM,47.7 µM,> 100 µM,38.4 µM,70.5 µM,60.4 µM,,,,,,,,,
Oc1ccc2ccccc2c1-c1nnc(CCCCCCCCc2nnc(-c3c(O)ccc4ccccc34)o2)o1,8.94 µM and 30.9 µM,15 µM and > 44.9 µM,9.59 µM and > 24.2 µM,25 µM and > 57.5 µM,5.82 µM and 24.2 µM,,22.4 µM and 50.6 µM,25 µM and > 100 µM,,25 µM and > 100 µM,5.99 µM,2.38 µM,1.68 µM,1.53 µM,0.135 µM,1.55 µM,4.88 µM,0.428 µM,27.2 µM
CN(C)c1ccc(/C=C(\NC(=O)c2ccccc2)C(=O)Nc2ccccc2C(=O)NN2C(=O)CSC2c2ccc(N(C)C)cc2)cc1 (configuration not stated),> 100 µM,> 100 µM,> 100 µM,> 100 µM,> 100 µM,> 100 µM,> 100 µM,> 100 µM,> 100 µM,> 100 µM,,,,,,,,,
Cc1[nH]c(=O)nc(N/N=C/c2ccc(Cl)c(Cl)c2)c1C(=O)Nc1ccc(Cl)c(Cl)c1,> 39 µM,> 44.1 µM,> 41.2 µM,> 100 µM,44.7 µM,24.5 µM,> 51.5 µM,49.9 µM,> 46.5 µM,35.3 µM,,,,,,,,,
O=C(Cn1c2ccc(Br)cc2c2nc3ccccc3nc21)NC1CCCCC1,> 100 µM,> 100 µM,> 100 µM,> 100 µM,> 100 µM,> 100 µM,> 100 µM,> 100 µM,> 100 µM,> 100 µM,,,,,,,,,
Cc1cc(S(=O)(=O)Nc2n[nH]c(Nc3ccccc3)n2)c(S)cc1Cl,> 10 µM,> 10 µM,> 10 µM,> 10 µM,> 10 µM,> 10 µM,> 10 µM,> 10 µM,> 10 µM,> 10 µM,,,,,,,,,
COc1ccc(/C=N/Nc2[nH]c(=S)nc3[nH]ncc23)cc1,> 100 µM,47.9 µM,> 100 µM,> 100 µM,79.9 µM,> 100 µM,> 100 µM,> 100 µM,> 100 µM,> 100 µM,,,,,,,,,
C=C[C@]1(C)CC[C@]2(C)C(CC[C@@]3(C)C2C[C@H](O)[C@H](O)[C@@]3(C)O)C1 (some centres not stated),> 100 µM,> 100 µM,> 100 µM,> 100 µM,> 100 µM,> 100 µM,> 100 µM,> 100 µM,> 100 µM,> 100 µM,,,,,,,,,
CC1=NN(c2ccc(C)cc2)C2(C1)SCC(=O)N2c1nc2ccccc2s1 (configuration not stated),71 µM,57.9 µM,> 100 µM,> 100 µM,52.6 µM,92.6 µM,70.1 µM,61.1 µM,52.2 µM,64.7 µM,,,,,,,,,
COc1ccccc1C(=O)c1c(N2CCCCC2)c(=O)c1=O,> 100 µM,> 100 µM,> 100 µM,> 100 µM,> 100 µM,> 100 µM,> 100 µM,> 100 µM,> 100 µM,> 100 µM,,,,,,,,,
O=C1c2cc3c(cc2CC12Cc1cc4c(cc1C2)CCC4)CCC3,> 100 µM,> 100 µM,> 100 µM,> 100 µM,> 100 µM,> 100 µM,> 100 µM,> 100 µM,> 100 µM,> 100 µM,,,,,,,,,
Cc1ncc([N+](=O)[O-])n1CCN=[N+]=[N-],> 100 µM,> 100 µM,> 100 µM,> 100 µM,> 100 µM,> 100 µM,> 100 µM,> 100 µM,> 100 µM,> 100 µM,,,,,,,,,
O=C1c2cc([N+](=O)[O-])ccc2NC2C(O)c3ccccc3N12 (configuration not stated),64.4 µM,> 100 µM,94.5 µM,87.8 µM,38.7 µM,> 100 µM,> 100 µM,> 100 µM,> 100 µM,44.8 µM,,,,,,,,,
O=C(c1ccccc1F)c1c(NCc2ccccc2)c(=O)c1=O,> 100 µM,> 100 µM,> 100 µM,> 100 µM,> 100 µM,> 100 µM,> 100 µM,> 100 µM,> 100 µM,> 100 µM,,,,,,,,,
